Data on 19 molecules can be found in patent EP2567959B1, “6-(4-HYDROXY-PHENYL)-3-STYRYL-1H-PYRAZOLO[3,4-B]PYRIDINE-4-CARBOXYLIC ACID AMIDE DERIVATIVES AS KINASE INHIBITORS” (SANOFI, priority 2011, dated 2013).

Broadly, the inhibition is the drop in the measured response relative to a control, in per cent.

The experiment deals with T1, human full-length recombinant PKC βII (Homo sapiens, UniProt P05771).
T1 construct: Active human full-length recombinant PKC βII; purchased Invitrogen GmbH, Darmstadt, Germany
T1 sequence (P05771 1-673 isoform P05771-2): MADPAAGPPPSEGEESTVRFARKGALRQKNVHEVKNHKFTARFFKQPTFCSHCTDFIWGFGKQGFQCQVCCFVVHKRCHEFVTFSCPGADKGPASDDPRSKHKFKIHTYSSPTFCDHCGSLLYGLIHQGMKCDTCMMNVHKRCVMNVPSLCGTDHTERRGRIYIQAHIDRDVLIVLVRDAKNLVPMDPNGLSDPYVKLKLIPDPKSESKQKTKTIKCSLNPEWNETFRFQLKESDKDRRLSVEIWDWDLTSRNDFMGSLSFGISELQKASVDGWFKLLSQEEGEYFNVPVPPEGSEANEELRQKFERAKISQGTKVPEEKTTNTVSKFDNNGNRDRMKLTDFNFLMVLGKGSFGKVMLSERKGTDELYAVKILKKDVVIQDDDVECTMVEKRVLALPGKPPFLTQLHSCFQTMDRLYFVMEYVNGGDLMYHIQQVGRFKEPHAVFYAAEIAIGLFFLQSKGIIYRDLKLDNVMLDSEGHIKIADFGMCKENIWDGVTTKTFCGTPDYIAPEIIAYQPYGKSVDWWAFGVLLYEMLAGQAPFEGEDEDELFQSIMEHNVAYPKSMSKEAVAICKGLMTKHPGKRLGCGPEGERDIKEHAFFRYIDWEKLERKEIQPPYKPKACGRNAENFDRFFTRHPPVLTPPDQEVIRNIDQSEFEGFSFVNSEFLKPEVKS
Description: Determination of PKC βII inhibition (Caliper mobility-shift kinase assay, phosphorylation of fluorescein peptide substrate). The following applies: final compound concentration 1.14 µM (±0.15 µM); 60 min incubation at 32 °C. It counts as biochemical. The procedure, abridged:
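Active full-length PKC βII in pH 7.4 Hepes with MgCl2, CaCl2, PS, DAG and Triton X-100; substrate/ATP mix held 3 µM fluorescein peptide and 120 µM ATP before addition. Reaction ran 60 min at 32 °C, stopped with EDTA. Mobility-shift fractional turnover gave % inhibition at 1.14 µM (±0.15 µM) final compound.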
Turning to `O=C(c1cc(-c2ccc(O)cc2)nc2[nH]nc(/C=C/c3cc(Cl)cc(Cl)c3)c12)N1CCNCC1` [Example 70, [3-[(E)-2-(3,5-Dichloro-phenyl)-vinyl]-6-(4-hydroxy-phenyl)-1H-pyrazolo[3,4-b]pyridin-4-yl]-piperazin-1-yl-methanone], the inhibition at 1.14 µM is 98%.

On to `O=C(c1cc(-c2ccc(O)cc2)nc2[nH]nc(/C=C/c3cccc(F)c3)c12)N1CCNCC1` [Example 71, [3-[(E)-2-(3-Fluoro-phenyl)-vinyl]-6-(4-hydroxy-phenyl)-1H-pyrazolo[3,4-b]pyridin-4-yl]-piperazin-1-yl-methanone], for which the inhibition at 1.14 µM was 96%.

For `O=C(c1cc(-c2ccc(O)cc2)nc2[nH]nc(/C=C/c3ccccc3F)c12)N1CCNCC1` [Example 72, [3-[(E)-2-(2-Fluoro-phenyl)-vinyl]-6-(4-hydroxy-phenyl)-1H-pyrazolo[3,4-b]pyridin-4-yl]-piperazin-1-yl-methanone], the inhibition at 1.14 µM was found to be 99%.

For `COc1ccc(/C=C/c2n[nH]c3nc(-c4ccc(O)cc4)cc(C(=O)N4CCNCC4)c23)cc1C` [Example 73, {6-(4-Hydroxy-phenyl)-3-[(E)-2-(4-methoxy-3-methyl-phenyl)-vinyl]-1H-pyrazolo[3,4-b]pyridin-4-yl}-piperazin-1-yl-methanone], the inhibition at 1.14 µM stood at 98%.

With `CN(C)C(=O)N1CCN(C(=O)c2cc(-c3ccc(O)cc3)nc3[nH]nc(/C=C/c4ccccc4)c23)CC1` [Example 74, 4-[6-(4-Hydroxy-phenyl)-3-((E)-styryl)-1H-pyrazolo[3,4-b]pyridine-4-carbonyl]-piperazine-1-carboxylic acid dimethylamide], the inhibition at 1.14 µM was 27%.

As to `CC1(NC(=O)c2cc(-c3ccc(O)cc3)nc3[nH]nc(/C=C/c4ccccc4)c23)CCNCC1` [Example 75, 6-(4-Hydroxy-phenyl)-3-((E)-styryl)-1H-pyra-zolo[3,4-b]-pyridine-4-car-boxylic acid (4-methyl-piperidin-4-yl)-amide], the inhibition at 1.14 µM was determined as 93%.

For the molecule `CCCC[C@H]1CNCCN1C(=O)c1cc(-c2ccc(O)cc2)nc2[nH]nc(/C=C/c3ccccc3)c12` [Example 76, ((S)-2-Butyl-piperazin-1-yl)-[6-(4-hydroxy-phenyl)-3-((E)-styryl)-1H-pyra-zolo[3,4-b]-pyridin-4-yl]-methanone], the inhibition at 1.14 µM was determined as 57%.

Consider `CCCC[C@@H]1CNCCN1C(=O)c1cc(-c2ccc(O)cc2)nc2[nH]nc(/C=C/c3ccccc3)c12` [Example 77, ((R)-2-Butyl-piperazin-1-yl)-[6-(4-hydroxy-phenyl)-3-((E)-styryl)-1H-pyra-zolo[3,4-b]-pyridin-4-yl]-methanone], for which the inhibition at 1.14 µM turned out to be 79%.

Consider `O=C(c1cc(-c2ccc(O)cc2)nc2[nH]nc(/C=C/c3ccccc3)c12)N1CCC2(CCNC2)C1` (stereo not shown) [Example 78, (2,7-Diaza-spiro-[4.4]non-2-yl)-[6-(4-hydroxy-phenyl)-3-((E)-styryl)-1H-pyra-zolo[3,4-b]py-ridin-4-yl]-methanone], for which the inhibition at 1.14 µM was determined as 94%.

In the case of `O=C(c1cc(-c2ccc(O)cc2)nc2[nH]nc(/C=C/c3ccccc3)c12)N1CCNC2(CCCC2)C1` [Example 79, (6,9-Diaza-spiro-[4.5]dec-9-yl)-[6-(4-hydroxy-phenyl)-3-((E)-styryl)-1H-pyra-zolo[3,4-b]py-ridin-4-yl]-methanone], the inhibition at 1.14 µM is 97%.

Turning to `CCC(CC)C(=O)N1CCN(C(=O)c2cc(-c3ccc(O)cc3)nc3[nH]nc(/C=C/c4ccccc4)c23)CC1` [Example 80, 2-Ethyl-1-{4-[6-(4-hydroxy-phenyl)-3-((E)-styryl)-1H-pyra-zolo[3,4-b]pyri-dine-4-carbonyl]-piperazin-1-yl}-butan-1-one], the inhibition at 1.14 µM was 26%.

`O=C(CN1CCOCC1)N1CCN(C(=O)c2cc(-c3ccc(O)cc3)nc3[nH]nc(/C=C/c4ccccc4)c23)CC1` [Example 81, 1-{4-[6-(4-Hydroxy-phenyl)-3-((E)-styryl)-1H-pyrazolo[3,4-b]-pyridine-4-car-bonyl]-piperazin-1-yl}-2-mor-pholin-4-yl-ethanone]: the inhibition at 1.14 µM is 45%.

As for `COC(=O)N1CCN(C(=O)c2cc(-c3ccc(O)cc3)nc3[nH]nc(/C=C/c4ccccc4)c23)CC1` [Example 82, 4-[6-(4-Hydroxy-phenyl)-3-((E)-styryl)-1H-pyra-zolo[3,4-b]pyri-dine-4-carbonyl]-piperazine-1-carboxylic acid methyl ester], the inhibition at 1.14 µM came to 56%.

As for `O=C(c1cccnc1)N1CCN(C(=O)c2cc(-c3ccc(O)cc3)nc3[nH]nc(/C=C/c4ccccc4)c23)CC1` [Example 83, [6-(4-Hydroxy-phenyl)-3-((E)-styryl)-1H-pyra-zolo[3,4-b]pyri-din-4-yl]-[4-(pyridine-3-carbonyl)-piperazin-1-yl]-methanone], the inhibition at 1.14 µM came to 90%.

In the case of `CN(C)C(=O)CN1CCN(C(=O)c2cc(-c3ccc(O)cc3)nc3[nH]nc(/C=C/c4ccccc4)c23)CC1` [Example 84, 2-{4-[6-(4-Hydroxy-phenyl)-3-((E)-styryl)-1H-pyrazolo[3,4-b]-pyridine-4-carbo-nyl]-piperazin-1-yl}-N,N-dimethyl-acetamide], the inhibition at 1.14 µM stood at 54%.

In the case of `O=C(c1cc(-c2ccc(O)cc2)nc2[nH]nc(/C=C/c3ccccc3)c12)N1CCN(C2CC2)CC1` [Example 85, (4-Cyclopropyl-piperazin-1-yl)-[6-(4-hydroxy-phenyl)-3-((E)-styryl)-1H-pyra-zolo[3,4-b]py-ridin-4-yl]-methanone], the inhibition at 1.14 µM worked out at 19%.

On to `CC(C)(O)C(=O)N1CCN(C(=O)c2cc(-c3ccc(O)cc3)nc3[nH]nc(/C=C/c4ccccc4)c23)CC1` [Example 86, 2-Hydroxy-1-{4-[6-(4-hydroxy-phenyl)-3-((E)-styryl)-1H-pyra-zolo[3,4-b]pyri-dine-4-carbonyl]-piperazin-1-yl}-2-methyl-propan-1-one], for which the inhibition at 1.14 µM was 93%.

As for `CC(C)(CO)C(=O)N1CCN(C(=O)c2cc(-c3ccc(O)cc3)nc3[nH]nc(/C=C/c4ccccc4)c23)CC1` [Example 87, 3-Hydroxy-1-{4-[6-(4-hydroxy-phenyl)-3-((E)-styryl)-1H-pyra-zolo[3,4-b]pyri-dine-4-carbonyl]-piperazin-1-yl}-2,2-dimethyl-propan-1-one], the inhibition at 1.14 µM amounted to 94%.

Take `COCCC(=O)N1CCN(C(=O)c2cc(-c3ccc(O)cc3)nc3[nH]nc(/C=C/c4ccccc4)c23)CC1` [Example 88, 1-{4-[6-(4-Hydroxy-phenyl)-3-((E)-styryl)-1H-pyrazolo[3,4-b]-pyridine-4-carbonyl]-piperazin-1-yl}-3-methoxy-propan-1-one]: the inhibition at 1.14 µM was 89%.
